1 compound from patent publication US8809389B2, “Substituted alkynyl phenoxy compounds as new synergists in pesticidal compositions” (Endura S.p.A., priority 2009, dated 2014) can be followed below.

Data set [1] addresses T1, purified resistance-associated esterase (E4) (Myzus persicae, UniProt P35501).
T1 construct: 5 g of aphids (stored at −20° C.) were homogenised in 0.02 M phosphate buffer pH 7.0; from tissue; host or cells: whole Myzus persicae aphids, clone 794JZ; homogenate purified over G-25 and DEAE Sepharose Fast Flow
T1 sequence (P35501 24-552): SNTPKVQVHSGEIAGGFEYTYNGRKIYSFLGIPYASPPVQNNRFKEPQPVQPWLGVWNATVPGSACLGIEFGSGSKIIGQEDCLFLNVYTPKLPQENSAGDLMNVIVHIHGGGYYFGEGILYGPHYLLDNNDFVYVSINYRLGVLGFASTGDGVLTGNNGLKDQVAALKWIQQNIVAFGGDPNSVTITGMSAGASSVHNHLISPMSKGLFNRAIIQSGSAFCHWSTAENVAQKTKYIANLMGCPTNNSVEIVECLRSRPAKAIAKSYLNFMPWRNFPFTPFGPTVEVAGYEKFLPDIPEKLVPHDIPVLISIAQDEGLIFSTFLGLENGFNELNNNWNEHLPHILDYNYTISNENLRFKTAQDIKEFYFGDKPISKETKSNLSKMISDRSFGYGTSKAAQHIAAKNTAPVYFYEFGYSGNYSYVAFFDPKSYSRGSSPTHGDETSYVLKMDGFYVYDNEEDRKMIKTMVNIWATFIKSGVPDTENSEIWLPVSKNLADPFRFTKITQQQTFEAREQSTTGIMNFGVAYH
Kind of data set: Esterase interference assay (indirect determination of esterase inhibition). It is filed as biochemical. The note with it: no esterase = 0%, uninhibited E4 = 100%. The source says: Measuring the in vitro inhibition is not straight forward, as synergists may bind to a site other than the active site.
The esterase used was the well-characterised resistance associated esterase purified from M. persicae, E4, (aphid clone: 794JZ) as per Devonshire (1977) with some modifications(Devonshire A L, The properties of a carboxylesterase from the peach-potato aphid, Myzus persicae (Sulz.) and its role in conferring insecticide resistance. Biochem J 167: 675-683 (1977)). Briefly, 5 g of aphids (stored at −20° C.) were homogenised in 0.02 M phosphate buffer pH 7.0 and centrifuged at 20 000 g for 10 min. The supernatant was passed through a G-25 column using 0.02M Tris/HCl, pH 8.5 buffer. Unretarded fractions containing esterase activity were further chromatographed through DEAF Sepharose Fast Flow (Amersham Biosciences) and eluted with a linear 0-0.35 M NaCl gradient in 500 ml of Tris/HCl as above. Fractions containing carboxylesterase activity in the form of E4 were concentrated, desalted, and buffer exchanged to 0.02 M phosphate pH 7.0 for storage.
Interactions of the purified resistance-associated esterase (E4) with Compound of Example 2, Compound of Example 3, Compound of Example 4, Compound of Example 9 and Compound of Example 11 were performed using the ‘esterase interference assay’, as described by Khot et al., with some modifications. Devonshire A L, The properties of a carboxylesterase from the peach-potato aphid, Myzus persicae (Sulz.) and its role in conferring insecticide resistance. Biochem J 167: 675-683 (1977)). Briefly, stock solutions of novel synergists (3 mM in acetone) were pre-incubated with pure E4, to give a final concentration of 0.03 mM, for 16 h at 4° C. Aliquots (15 μl ) of E4, E4+Compound of Example 2, E4+Compound of Example 3, E4+Compound of Example 4, E4+Compound of Example 9 and E4+Compound of Example 11 were incubated for 1 h with 60 μl of serial dilutions of azamethiphos in 0.02M phosphate buffer, pH 7, in separate wells of a NUNC microplate. Aliquots (25 p1) of house fly head homogenate (source of AChE) were added to each well and incubated for 15 minutes at room temperature. E4 in acetone and buffer only served as the positive and the negative controls respectively. AChE activity was measured at 405 nm using a Tmax kinetic microplate reader (Molecular Devices, Menlo Park, Calif.). Readings were taken automatically for 10 min at 10 s intervals. The rate (mOD min^−1) was calculated by the integrated software, Softmax Pro 4.6. All treatments were performed in triplicate.
No added esterase is giving 0% esterase protection and uninhibited esterase (E4) is giving 100% protection.
The materials and procedure as stated in Example 13, paragraphs 13.1, 13.1.2, 13.1.2.1 and 13.1.2.2. have been used and the following results have been obtained: […]

For data set [2], the system named is pollen beetle, Meligethes aeneus. Kind of data set: Discriminating dose bioassay: α-cypermethrin in mixture with synergist. Format: in vivo. The note with it: for % Mortality: 24 h. The protocol:
Two pyrethroid resistant populations originating from two different areas in Poland ‘Rogalin'and lebork’ were collected in July 2008. A putative susceptible population, UK population, was also collected in July 2008 in Hertfordshire, UK. All populations were collected from oilseed rape contained adults only and were kept at room temperature before assays were performed.
Bioassays incorporating the compounds (Compound of Example 2 and Compound of Example 3) dissolved in acetone, were carried out using a diagnostic concentration of α-cypermethrin derived from the above full dose response bioassays in a mixture of 0.01 g L^−1 of the compounds. The concentration of α-cypermethrin used for the discriminating dose bioassays was 0.3 ppm α-cypermethrin for the two polish populations, Rogalin and Lebork and 0.03 ppm α-cypermethrin for UK population. Vials treated with the compounds only, dissolved in acetone and acetone only were used as controls. Ten to 15 replicates were used for each treatment depending on insect numbers within the population. Compounds concentrations chosen conferred no mortality in preliminary bioassays.
Treated vials including the pollen beetles were stored in constant environment facilities at 18±2° C. and 16L: 8D. All bioassays were scored at an endpoint of 24 h after exposure to the insecticide. Insects incapable of coordinated movement (after gentle touching with a pencil brush if necessary) were scored as dead.

Data set [3] deals with P450 enzymes (oxidases) of pollen beetle homogenate. Kind of data set: Oxidase assay: 7-ethoxycoumarin O-deethylation inhibition in pollen beetle homogenate. Format: biochemical, Meligethes aeneus. The note with it: 3 μl of 10 mM compound, enzyme plus acetone = 100. How it is done:
The ability of the novel compositions comprising the synergists of Formula (I) to inhibit P450 enzymes, a major mechanism conferring resistance to xenobiotics, was measured using pollen beetle homogenate.
Approximately 50 non-sexed adult pollen beetle from each population were homogenised on ice in 1 ml 0.1 M sodium phosphate buffer, pH 7.6, containing, 1 mM EDTA, 1 mM DTT, 1 mM PTU, 1 mM PMSF and centrifuged at 10 000×g for 10 min. The resulting supernatant was used as the enzyme source.
The O-deethylation inhibition by compounds of Example 2 or 3 was measured using 7-ethoxycoumarin (7-EC) according to Ullrich and Weber (Ullrich V and Weber P, The O-dealkylation of 7-ethoxycoumarin by liver microsomes. Z Physiol Chem 353: 1171-1177 (1972)) and adapted to the microplate format as described by DeSousa (De Sousa G, Cuany A, Brun A, Amichot M, Rahmani R, Berge J B, A microfluorometric method for measuring ethoxycoumarin-O-deethylase activity on individual Drosophila melanogaster abdomens: interest for screening resistance in insect populations Analyt. Biochem 229: 86-91 (1995)). Briefly, 7-EC was dissolved in ethanol to make a 20 mM stock solution and diluted by the addition of 0.1 M, pH 7.8 sodium phosphate buffer to give a concentration of 0.5 mM. Fifty microliters of pollen beetle enzyme were added to separate wells of a microplate, followed by the addition of 3 μl 10 mM of either compounds of Example 2 or 3 or acetone only. After 10 min incubation in room temperature, 80 μl 0.5 mM 7-EC was added following by another 5 min at 30° C. The reaction initiated by the addition of 10 μl 9.6 mM NADPH in 0.1 M sodium phosphate, pH 7.8. Enzyme activity was measured in a Victor^2 1420 multilabel counter (Wallac, Milton Keynes, UK) for 60 min with readings taken every 5 min, using an excitation wavelength of 370 nm and an emission wavelength of 460 nm. All assays were performed in triplicate.
The ability of the composition comprising the compounds of Examples 2 and 3 to inhibit oxidases derived from the 3 different pollen beetle populations is presented in Table 7.

Take `CC#CCOc1ccc2c(c1)OCO2` [Example 2, 5-(but-2-ynyloxy)-benzo[1.3]dioxole]: the “Esterase protection (%) after pre-incubation with compound” value in data set [1] (Table 2 (Example 13), 0.03 mM compound pre-incubated with E4 16 h at 4° C.) was 10.36%; in data set [1] (second 'TABLE 3' (Example 16), procedure as Example 13), 10.35%. Besides, the “% Mortality” value in data set [2] (Lebork, 0.3 ppm α-cypermethrin in mixture with 0.01 g L^−1 synergist) was found to be 85.21%; in data set [2] (Rogalin, 0.3 ppm α-cypermethrin in mixture with 0.01 g L^−1 synergist), 80.56%; in data set [2] (UK population, 0.03 ppm α-cypermethrin in mixture with 0.01 g L^−1 synergist), 71.68%. Moreover, in data set [2] (Rogalin and Lebork, 0.3 ppm α-cypermethrin in mixture with 0.01 g L^−1 synergist), the “Mortality” value is on record as “around 85%”. Also, the “Mortality with the compound only” value in data set [2] (synergist only, without α-cypermethrin (data not shown)) is “No mortality”. The “Inhibition of 7-ethoxycoumarin O-deethylation (%)” value was −38.98% in data set [3] (Lebork homogenate), −11.25% in data set [3] (Rogalin homogenate) and −9.3% in data set [3] (UK population homogenate).
